# Data published in US7045636B2, “MCH antagonists for the treatment of obesity” (Schering Corporation, priority 2001, dated 2006).
# Where two headings read alike, the source gives them in different places.
# Biological target: T1, MCH receptor (Homo sapiens, UniProt Q99705)
# T1 construct: expressed in transfected cells; host or cells: CHO cells
# Test: MCH Receptor Binding Assay
# Method: MCH Receptor Binding Assay:
# Membranes from CHO cells expressing the MCH receptor were prepared by lysing cells with 5 mM HEPES for 15 min at 4C. Cell lysates were centrifuged ([…], 15 min) and the pellet was re-suspended in 5 mM HEPES. For each 96-well plate (Microlite, Dynex Technologies), 1 mg of cell membranes were incubated with 10 mg of wheat germ agglutinin SPA beads (Amersham) for 5 min at 4 C in a volume of 10 ml of binding buffer (25 mM HEPES, 10 mM MGCl2, 10 mM NaCl, 5 mM MnCl2, 0.1% BSA). The membrane/bead mixture was centrifuged (1500×g, 3.5 min), the supernatant was aspirated, and the pellet was re-suspended in 10 ml binding buffer. The centrifugation, aspiration and re-suspension were then repeated. The membrane/bead mixture (100 μl) was then added to 96-well plates containing 50 μl of 500 pM [^125I]-MCH (NEN) and […] of the appropriate concentration of compound (4× the desired final concentration). Nonspecific binding was determined by including 1 μM MCH in the binding reaction. The binding reaction was incubated at room temperature for 2 h. Plates were then analyzed in a TOPCOUNT microplate scintillation counter (Packard). Data was analyzed and Ki values were determined using GraphPad Prim.
# [1] = text of the example, printed unit nm, read-out: MCH Ki
# [2] = Table 1, membranes from CHO cells expressing the MCH receptor, [125I]-MCH, SPA, read-out: MCH Ki (nm)
# [3] = Table 2, membranes from CHO cells expressing the MCH receptor, [125I]-MCH, SPA, read-out: Ki (MCH)
# T1 sequence (Q99705 whole entry): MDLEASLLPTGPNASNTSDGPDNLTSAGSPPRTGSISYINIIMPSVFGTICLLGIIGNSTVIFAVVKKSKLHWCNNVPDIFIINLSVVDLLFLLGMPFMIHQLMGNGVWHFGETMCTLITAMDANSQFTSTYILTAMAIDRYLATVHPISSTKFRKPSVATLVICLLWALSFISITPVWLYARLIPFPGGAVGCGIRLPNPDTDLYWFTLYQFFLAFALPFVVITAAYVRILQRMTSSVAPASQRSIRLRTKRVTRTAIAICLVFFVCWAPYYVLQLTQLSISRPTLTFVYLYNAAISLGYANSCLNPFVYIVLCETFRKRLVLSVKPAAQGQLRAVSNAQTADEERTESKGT
SMILES,Ki [2],further results
N#Cc1cccc(-c2ccc(CN(CC(=O)Nc3cc(Cl)cc(Cl)c3)C(=O)CCN3CCCC3)cc2)c1 [Example 1],,Ki [1]: 21 nM
N#Cc1cccc(-c2ccc(CCN(CC(=O)Nc3ccc(F)c(Cl)c3)C(=O)CN3CC[C@@H](O)C3)cc2)c1 [Example 3],3.7 nM,
N#Cc1cccc(-c2ccc(CCN(CC(=O)Nc3ccc(F)c(Cl)c3)C(=O)CN3CCCC3)cc2)c1 [Example 4],5.3 nM,
N#Cc1cccc(-c2ccc(CCN(CC(=O)Nc3cc(F)cc(C(F)(F)F)c3)C(=O)CN3CC[C@@H](O)C3)cc2)c1 [Example 5],6.7 nM,
N#Cc1cccc(-c2ccc(CCN(CC(=O)Nc3cc(Cl)cc(Cl)c3)C(=O)CCN3CC[C@H](O)C3)cc2)c1 [Example 6],7.2 nM,
N#Cc1cccc(-c2ccc(CCN(CC(=O)Nc3cc(Cl)cc(Cl)c3)C(=O)CN3CCCCC3)cc2)c1 [Example 7],9.3 nM,
N#Cc1cccc(-c2ccc(CCN(CC(=O)Nc3cc(Cl)cc(Cl)c3)C(=O)CCN3CCCC3)cc2)c1 [Example 9],10 nM,
N#Cc1cccc(-c2ccc(CCN(CC(=O)Nc3ccc(Cl)c(C(F)(F)F)c3)C(=O)CN3CC[C@@H](O)C3)cc2)c1 [Example 10],11 nM,
N#Cc1cccc(-c2ccc(CCN(CC(=O)Nc3cc(F)cc(C(F)(F)F)c3)C(=O)CN3CCCC3)cc2)c1 [Example 11],11.7 nM,
N#Cc1cccc(-c2ccc(CCN(CC(=O)Nc3cc(Cl)cc(Cl)c3)C(=O)CCN3CC[C@@H](O)C3)cc2)c1 [Example 12],12 nM,
N#Cc1cccc(-c2ccc(CN(CC(=O)Nc3cc(Cl)cc(Cl)c3)C(=O)NCCN3CCCC3)cc2)c1 [Example 13],13 nM,
N#Cc1cccc(-c2ccc(CCN(CC(=O)Nc3cc(Cl)cc(Cl)c3)C(=O)CN3CCCC3)cc2)c1 [Example 15],19 nM,
CCCNCCC(=O)N(CCc1ccc(-c2cccc(C#N)c2)cc1)CC(=O)Nc1cc(Cl)cc(Cl)c1 [Example 16],24 nM,
N#Cc1cccc(-c2ccc(CCN(CC(=O)Nc3ccc(Cl)c(C(F)(F)F)c3)C(=O)CN3CCCC3)cc2)c1 [Example 17],25 nM,
N#Cc1cccc(-c2ccc(CN(CC(=O)Nc3cc(Cl)cc(Cl)c3)C(=O)CN3CC[C@H](O)C3)cc2)c1 [Example 18],27 nM,
N#Cc1cccc(-c2ccc(CCN(CC(=O)Nc3ccc(F)c(C(F)(F)F)c3)C(=O)CN3CCCC3)cc2)c1 [Example 19],28 nM,
N#Cc1cccc(-c2ccc(CCN(CC(=O)Nc3cc(Cl)cc(Cl)c3)C(=O)CCN3CCC3)cc2)c1 [Example 20],32 nM,
N#Cc1cccc(-c2ccc(CN(CC(=O)Nc3cc(Cl)cc(Cl)c3)C(=O)CN3CCCC3)cc2)c1 [Example 21],35 nM,
CN(C)CC(=O)N(CC(=O)Nc1cc(Cl)cc(Cl)c1)Cc1ccc(-c2cccc(C#N)c2)cc1 [Example 22],36 nM,
N#Cc1cccc(-c2ccc(CN(CC(=O)Nc3cc(Cl)cc(Cl)c3)C(=O)C3CN(C4CCCC4)C3)cc2)c1 [Example 24],40 nM,
CN(C)CC(=O)N(CC(=O)Nc1cc(Cl)cc(Cl)c1)c1ccc(-c2cccc(C#N)c2)cc1 [Example 25],52 nM,
CC(C(=O)Nc1cc(Cl)cc(Cl)c1)N(Cc1ccc(-c2cccc(C#N)c2)cc1)C(=O)CCN1CC[C@H](O)C1 (stereo partly drawn) [Example 26],56 nM,
N#Cc1cccc(-c2ccc(CN(CC(=O)Nc3cc(Cl)cc(Cl)c3)C(=O)CN3CC[C@@H](O)C3)cc2)c1 [Example 27],61 nM,

SMILES,Ki [2],further results
CN1CCN(CC(=O)N(CCc2ccc(-c3cccc(C#N)c3)cc2)CC(=O)Nc2cc(Cl)cc(Cl)c2)CC1 [Example 28],63 nM,
N#Cc1cccc(-c2ccc(CN(CC(=O)Nc3ccc(F)c(C(F)(F)F)c3)C(=O)CN3CCCC3)cc2)c1 [Example 29],72 nM,
CC(C(=O)Nc1cc(Cl)cc(Cl)c1)N(Cc1ccc(-c2cccc(C#N)c2)cc1)C(=O)CCN1CCCC1 (stereo not drawn) [Example 30],73 nM,
CC(=O)N[C@@H]1CCN(CC(=O)N(CCc2ccc(-c3cccc(C#N)c3)cc2)CC(=O)Nc2cc(Cl)cc(Cl)c2)C1 [Example 31],82 nM,
CN(C)CC(=O)N(CCc1ccc(-c2cccc(C#N)c2)cc1)CC(=O)Nc1cc(Cl)cc(Cl)c1 [Example 32],90 nM,
CC(C(=O)Nc1cc(Cl)cc(Cl)c1)N(CCc1ccc(-c2cccc(C#N)c2)cc1)C(=O)CN1CC[C@H](O)C1 (stereo partly drawn) [Example 36],8 nM,
CC(C(=O)Nc1cc(Cl)cc(Cl)c1)N(CCc1ccc(-c2cccc(C#N)c2)cc1)C(=O)CN1CCCCC1 (stereo not drawn) [Example 37],9 nM,
CC(c1ccc(-c2cccc(C#N)c2)cc1)N(CC(=O)Nc1cc(Cl)cc(Cl)c1)C(=O)CN1CCCC1 (stereo not drawn) [Example 40],,Ki [1]: 21 nM
CC(c1ccc(-c2cccc(C#N)c2)cc1)N(CC(=O)Nc1cc(Cl)cc(Cl)c1)C(=O)CCN1CC[C@@H](O)C1 (stereo partly drawn) [Example 41],,Ki [3]: 12 nM
CC(c1ccc(-c2cccc(C#N)c2)cc1)N(CC(=O)Nc1cc(Cl)cc(Cl)c1)C(=O)CN1CC[C@H](O)C1 (stereo partly drawn) [Example 42],,Ki [3]: 16 nM
C[C@@H](c1ccc(-c2cccc(C#N)c2)cc1)N(CC(=O)Nc1cc(Cl)cc(Cl)c1)C(=O)CCN1CC[C@@H](O)C1 [Example 43],,Ki [3]: 18 nM
C[C@@H](c1ccc(-c2cccc(C#N)c2)cc1)N(CC(=O)Nc1cc(Cl)cc(Cl)c1)C(=O)CCN1CCCCC1 [Example 44],,Ki [3]: 18 nM
CCCNCCC(=O)N(CC(=O)Nc1cc(Cl)cc(Cl)c1)[C@@H](C)c1ccc(-c2cccc(C#N)c2)cc1 [Example 45],,Ki [3]: 22 nM
C[C@@H](c1ccc(-c2cccc(C#N)c2)cc1)N(CC(=O)Nc1cc(Cl)cc(Cl)c1)C(=O)CCNCC1CC1 [Example 46],,Ki [3]: 22 nM
C[C@H](c1ccc(-c2cccc(C#N)c2)cc1)N(CC(=O)Nc1cc(Cl)cc(Cl)c1)C(=O)CCN1CC[C@@H](O)C1 [Example 47],,Ki [3]: 23 nM
C[C@@H](c1ccc(-c2cccc(C#N)c2)cc1)N(CC(=O)Nc1cc(Cl)cc(Cl)c1)C(=O)CCNC1CCC1 [Example 48],,Ki [3]: 28 nM
C[C@H](c1ccc(-c2cccc(C#N)c2)cc1)N(CC(=O)Nc1cc(Cl)cc(Cl)c1)C(=O)CN1CC[C@@H](O)C1 [Example 49],,Ki [3]: 31 nM
CC(C)CNCCC(=O)N(CC(=O)Nc1cc(Cl)cc(Cl)c1)[C@@H](C)c1ccc(-c2cccc(C#N)c2)cc1 [Example 50],,Ki [3]: 34 nM
C[C@@H](c1ccc(-c2cccc(C#N)c2)cc1)N(CC(=O)Nc1cc(Cl)cc(Cl)c1)C(=O)CCN(C)C [Example 51],,Ki [3]: 45 nM
C[C@@H](c1ccc(-c2cccc(C#N)c2)cc1)N(CC(=O)Nc1cc(Cl)cc(Cl)c1)C(=O)CCNC1CCCC1 [Example 52],,Ki [3]: 67 nM
CNCCC(=O)N(CC(=O)Nc1cc(Cl)cc(Cl)c1)[C@@H](C)c1ccc(-c2cccc(C#N)c2)cc1 [Example 53],,Ki [3]: 78 nM
N#Cc1cccc(-c2ccc(CC(=O)N(CCCN3CCCC3)CC(=O)Nc3cc(Cl)cc(Cl)c3)cc2)c1 [Example 61],,"Ki (printed unit nM, read-out: MCH Ki): 62 nM"
